Legend:
LoVo cells [1] = test: BrdU proliferation assay, LoVo; type: cell-based; settings: 48 h
Protocol: (§1) For BrdU assays, 1×10^4 of indicated cells were plated per well into a 96-well plate. After 24 h, cells were treated with the indicated inhibitors for 48 h. Three independent experiments were plated with six replicates per each condition. Cells were treated with […] BrdU for 2 h. BrdU incorporation into newly synthesized DNA was measured using a cell proliferation colorimetric immunoassay kit according to the manufacturer's instructions (Roche, Switzerland). Results are expressed as mean±S.D. Results are represented as percentage of positive cells (mean±S.D) of three independent experiments.

[2] = tested on: bladder cancer 5637 cells; test: BrdU proliferation assay, 5637; type: cell-based, human; settings: 48 h
Protocol: as §1

liver cancer HepG2 cells = test: BrdU proliferation assay, HepG2; type: cell-based, human; settings: 48 h
Protocol: as §1

Hakai-MDCK cells [3] = test: E-cadherin protein levels, Hakai-MDCK; type: cell-based; settings: mesenchymal Hakai-MDCK cells, no basal E-cadherin
Protocol: (§2) For western blot analysis, cells were treated with the indicated inhibitors for 48 h and the whole cell extracts were obtained as described previously. Twenty micrograms of lysates were resolved on a 10% polyacrilamide SDS-PAGE followed by western blot analysis performed as previously described. For immunofluorescence assays cells were grown for 24 h on glass coverslips and treated with the indicated inhibitors for 48 h. Cells were fixed with 4% PFA for 15 min, permeabilized with 0.5% […] and incubated with E-cadherin antibody for 2 h. Coverslips were incubated with fluorescein-tagged secondary antibody (Dakopatts, Sweden) for […]. Finally coverslips were mounted with ProLong Gold antifade reagent (LifeTech, UK) and images were taken in epifluorescence microscope (Olympus) using 40× objective.

[4] = tested on: ubiquitination in 293T cells; test: Ubiquitination assay in 293T cells transfected with v-Src and HA-ubiquitin (Hakai not overexpressed); type: cell-based
Protocol: Six hours after transfection cells were treated with indicated concentrations of Hakin-1, Hakin-5 or the rest of the analogues tested for 36 h. Whole cell extracts were obtained in lysis buffer (20 mM Tris-HCl pH 7.5, 150 mM NaCl and 1% Triton X-100) containing 10 μg/ml leupeptin, 10 μg/ml aprotinin and 1 mM phenylmethanesulphonyl fluoride (PMSF), supplemented with 10 mM N-ethylmaleimide. Cells were harvested and subjected to western blotting using anti-HA antibody to detect ubiquitination.

LoVo cells [5] = test: Immunofluorescence of E-cadherin, LoVo; type: cell-based; settings: 48 h
Protocol: as §2

HT-29 cells = test: Soft agar-colony formation assay, HT29; type: cell-based; settings: 28 days
Protocol: (§3) Soft agar-colony formation assay was performed on 12-well plates in triplicates at a density of 5×10^3 MDCK and MDCK-Hakai cells/well, or 12×10^3 HT29 cells/well. Cells were seeded in medium with 0.5% low-melting agarose over a layer with 0.75% low-melting agarose (Lonza Rockland, Me., USA). Cells were treated with the indicated inhibitors and DMSO was used as vehicle. Treatment was refreshed every 3 days and, after 21 days for MDCK and MDCK-Hakai cells or 28 days for HT29 cells, number of colonies were quantified. Quantification of five randomly-selected fields of each condition was photographed with a Nikon Eclipse-TI microscope (objective 4×). Experiments were conducted with three triplicates and were repeated three times. Data are represented as mean±SD.

Hakai-MDCK cells [6] = test: Invasion assay, Hakai-MDCK; type: cell-based; settings: treated 48 h before seeding
Protocol: (§4) For invasion assays, cells were treated with Hakin-1 or DMSO as vehicle for 48 h using 1% FBS during the last 24 hours. 3×10^5 MDCK, MDCK-Hakai or LoVo cells were seeded in a cell invasion chamber (Cell invasion assaykit, Chemicon International) containing medium with 2% FBS. After 72 hours for MDCK and MDCK-Hakai Invasive and 16 h for LoVo cells, invasive cells invaded that reach the lower chamber containing 30% FBS were fixed and stained with crystal violet (Sigma Aldrich, St Louis, Mo.) following the manufacturer's specifications. For migration assays, HT29 cells were cultured with Hakin-1 or DMSO as vehicle for 48 h, using medium without serum the last 24 h. In the cell migration chamber were seeded 3×10^5 HT29 cells (Cell migration kit, Millipore, Bedford, Mass.) containing medium without serum. After 16 h, migrated cells in the lower chamber containing serum with 30% FBS were stained with crystal violet and counted following the manufacturer's specifications. For both invasion and migration assays cells were counted in five fields photographed with an Olympus microscope using a 20× objective, experiments were performed in triplicates for each condition and the assays were repeated at least three times. Results are expressed as mean±SD.

[7] = tested on: Hakai-transformed MDCK cells; test: Phase-contrast cell phenotype, Hakai-MDCK; type: cell-based
Protocol: MDCK, HEK293T, HepG2, MCF7 and ACHN cells were cultured in Dulbecco's Modified Eagles Medium (DMEM). MDCK stably expressing Hakai cells (Hakai-MDCK) were previously reported and were growth in DMEM with G418 (800 μg/ml). […] LoVo and PC-3 cells were cultured in F-12K Medium (Kaighn's Modification of Ham's F-12 Medium) and HT-29 cells in McCoy's 5a Medium Modified. 5637 cells were cultured in RPMI medium. All culture media were supplemented with 1% penicillin/streptomycin and 10% of heat-inactivated fetal bovine serum (FBS) at 37° C. in a humidified incubator with 5% CO2. Cells were monthly tested for mycoplasma contamination and used only for 1-3 months after defrosted. LoVo and HT29 cells were authenticated with the StemElite ID system (Promega). For phase-contrast images, culture cells were photographed with a Nikon Eclipse-TI microscope.

[8] = tested on: LoVo colon tumour cell line; test: MTT cell viability assay, LoVo; type: cell-based; settings: 72 h
Protocol: (§5) For cytotoxicity assays, 1×10^4 cells were seeded per well into a 96-well plate. After 24 h cells were treated with the indicated inhibitors for 72 h and a MTT colorimetric cell viability assay was performed following manufacturer's instructions (Sigma Aldrich, St Louis, Mo.). Absorbance was measured at 570 and 630 nm using a Multiskan Plus Reader (Nanoquant Infinite M200 Tecan Trading AG, Switzerland). Dose-response curves were designed with Graph Pad Prism Software and the half-maximal inhibitory concentration (IC50) values were calculated. Represented data are the mean±SEM of at least three independent experiments with six replicates per condition.

renal cancer ACHN cells = test: BrdU proliferation assay, ACHN; type: cell-based, human; settings: 48 h
Protocol: as §1

[9] = tested on: Hakai-MDCK cell lines (clone 4 and clone 11); test: MTT cell viability assay, Hakai-MDCK; type: cell-based; settings: both clones of Hakai-MDCK compared to MDCK; 72 h
Protocol: as §5

HT29 cells = test: BrdU proliferation assay, HT29; type: cell-based; settings: 48 h
Protocol: as §1

[10] = tested on: prostate cancer PC-3 cells; test: BrdU proliferation assay, PC-3; type: cell-based, human; settings: 48 h
Protocol: as §1

LoVo cells [11] = test: Invasion assay, LoVo; type: cell-based; settings: treated 48 h before seeding
Protocol: as §4

Hakai-MDCK cells [12] = test: Soft agar-colony formation assay, Hakai-MDCK; type: cell-based; settings: 21 days
Protocol: as §3

O=C(O)c1ccc(-n2nnnc2SCC(=O)c2ccc([N+](=O)[O-])cc2)cc1 [Hakin-1, 4-(5-{[2-(4-nitrophenyl)-2-oxoethyl]thiol}-1H-tetrazol-1-yl)benzoic acid]
cell proliferation (BrdU) (LoVo cells [1]): reduced cell proliferation | cell proliferation (BrdU) [2]: inhibits cell proliferation | cell proliferation (BrdU) (liver cancer HepG2 cells): inhibits cell proliferation | E-cadherin protein levels (Hakai-MDCK cells [3]): no recovery was detected | ubiquitination when Hakai was not overexpressed [4]: did not affect ubiquitination | E-cadherin levels at cell-cell contacts (immunofluorescence) (LoVo cells [5]): significant increase E-cadherin levels at cell-cell contacts | colony formation (soft agar) (HT-29 cells): robust inhibition of colony formation | cell invasion (Hakai-MDCK cells [6]): decreased cell invasion | mesenchymal phenotype (phase contrast) [7]: induction of an epithelial phenotype | cytotoxicity effect (cell viability, MTT) [8]: important inhibitory response | cell proliferation (BrdU) (renal cancer ACHN cells): inhibits cell proliferation | sensitivity to treatment (cell viability, MTT) [9]: more sensitive | cell proliferation (BrdU) (HT29 cells): reduced cell proliferation | cell proliferation (BrdU) [10]: inhibits cell proliferation | cell invasion (LoVo cells [11]): strongly reduced cell invasion | colony formation (soft agar) (Hakai-MDCK cells [12]): robust inhibition of colony formation
